According to US7700602B2, “Amino-5,5-diphenylimidazolone derivatives for the inhibition of β-secretase” (Wyeth LLC, priority 2004, dated 2010):
Read-outs that look alike come from different tables or passages of the source.

How the values were obtained:
[1] = target: human BACE1 (Homo sapiens, UniProt P56817); experiment: Fluorescent kinetic assay, inhibition of BACE1 (WABC-6 peptide substrate); format: biochemical;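 also: fluorescence monitored at 320 nm excitation and 420 nm emission every 40 s over 30 min, with the substrate cleavage rate taken from the linear slope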
human BACE1, sequence (P56817 46-501): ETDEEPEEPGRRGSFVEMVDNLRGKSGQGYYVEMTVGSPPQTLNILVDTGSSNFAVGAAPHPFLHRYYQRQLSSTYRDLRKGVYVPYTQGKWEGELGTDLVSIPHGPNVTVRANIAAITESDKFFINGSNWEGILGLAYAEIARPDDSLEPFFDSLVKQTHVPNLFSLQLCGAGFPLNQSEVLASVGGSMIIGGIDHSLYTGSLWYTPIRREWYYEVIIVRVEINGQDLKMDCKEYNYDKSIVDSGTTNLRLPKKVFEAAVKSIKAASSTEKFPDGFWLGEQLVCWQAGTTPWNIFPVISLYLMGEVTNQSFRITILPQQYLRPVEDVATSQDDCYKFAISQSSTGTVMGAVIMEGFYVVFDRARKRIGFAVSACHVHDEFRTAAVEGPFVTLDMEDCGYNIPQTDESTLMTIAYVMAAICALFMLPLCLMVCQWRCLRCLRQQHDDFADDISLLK

[2] = target: T1, human BACE2 (Homo sapiens, UniProt Q9Y5Z0); experiment: Fluorescent Kinetic Assay for Human Recombinant BACE 2 (selectivity BACE1/BACE2); format: biochemical; conditions: selectivity BACE1 over BACE2; 1.5 nM human BACE2, 25 μM substrate, pH 4.5;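 also: cleavage rate from the linear slope of fluorescence (excitation 320 nm, emission 420 nm) recorded every 40 s over 30 min at room temperature, sodium acetate buffer with 0.05% CHAPS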
T1 sequence (Q9Y5Z0 63-518): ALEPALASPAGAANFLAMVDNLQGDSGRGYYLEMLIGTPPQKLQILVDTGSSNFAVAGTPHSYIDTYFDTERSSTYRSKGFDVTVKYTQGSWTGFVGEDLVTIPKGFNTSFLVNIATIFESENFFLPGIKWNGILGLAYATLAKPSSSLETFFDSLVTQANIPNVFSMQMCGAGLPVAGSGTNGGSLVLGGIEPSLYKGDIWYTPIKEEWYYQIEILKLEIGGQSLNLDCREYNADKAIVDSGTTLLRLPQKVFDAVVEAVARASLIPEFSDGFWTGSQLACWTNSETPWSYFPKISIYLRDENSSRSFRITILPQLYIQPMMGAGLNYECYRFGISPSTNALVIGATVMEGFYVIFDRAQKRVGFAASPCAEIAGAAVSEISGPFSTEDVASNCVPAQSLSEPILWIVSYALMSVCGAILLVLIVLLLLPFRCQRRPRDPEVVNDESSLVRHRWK

[3] = 10 nM enzyme, 25 μM substrate WABC-6, pH 4.5, room temperature, read-out: IC50 (μM) BACE1

Structure (SMILES) | IC50 [1] [µM] | IC50 [1, 3] [µM] | BACE1/BACE2 selectivity [2]
COc1ccc(C2(c3ccc(C#N)c(-c4cccnc4)c3)N=C(N)N(C)C2=O)cc1C (centres unmarked) [Example 5, 4-[2-amino-4-(4-methoxy-3-methylphenyl)-1-methyl-5-oxo-4,5-dihydro-1H-imidazol-4-yl]-2-pyridin-3-ylbenzonitrile] | 0.11 to 1 | – | –
CCN1C(=O)C(c2cccc(-c3cccnc3)c2)(c2ccc(OC)c(C)c2)N=C1N (centres unmarked) [Example 8] | – | 0.01 to 0.1 | II (II = 10-100-fold selectivity)
COc1ccc(C2(c3cccc(-c4cnccn4)c3)N=C(N)N(C)C2=O)cc1C (centres unmarked) [Example 9] | – | 0.01 to 0.1 | II (II = 10-100-fold selectivity)
Cc1cc(C2(c3cccc(-c4cccnc4)c3)N=C(N)N(C)C2=O)ccc1O (centres unmarked) [Example 10] | – | 0.01 to 0.1 | II (II = 10-100-fold selectivity)
CCCOc1cc(C2(c3cccc(-c4cccnc4)c3)N=C(N)N(C)C2=O)ccc1OC (centres unmarked) [Example 16] | – | 0.01 to 0.1 | III (III = <10-fold selectivity)
CCCCOc1cc(C2(c3cccc(-c4cccnc4)c3)N=C(N)N(C)C2=O)ccc1OC (centres unmarked) [Example 17] | – | 0.01 to 0.1 | III (III = <10-fold selectivity)
COc1ccc(C2(c3cccc(-c4cccnc4)c3)N=C(N)N(C)C2=O)cc1OC(C)C (centres unmarked) [Example 18] | 0.01 to 0.1 | – | II (II = 10-100-fold selectivity)
COc1ccc(C2(c3cccc(-c4cccnc4)c3)N=C(N)N(C)C2=O)cc1C#N (centres unmarked) [Example 20] | 0.11 to 1 | – | III (III = <10-fold selectivity)
COc1ccc(C2(c3cccc(-c4cccnc4)c3)N=C(N)N(C)C2=O)cc1F (centres unmarked) [Example 21] | 0.01 to 0.1 | – | –
CCOc1cc(C2(c3cccc(-c4cccnc4)c3)N=C(N)N(C)C2=O)ccc1OC (centres unmarked) [Example 24] | 0.01 to 0.1 | – | II (II = 10-100-fold selectivity)
CN1C(=O)C(c2ccc(OC(F)(F)F)cc2)(c2cccc(-c3ncccn3)c2)N=C1N (centres unmarked) [Example 37, 2-Amino-3-methyl-5-(3-pyrimidin-2-ylphenyl)-5-[4-(trifluoromethoxy)phenyl]-3,5-dihydro-4H-imidazol-4-one] | – | 0.01 to 0.1 | III (III = <10-fold selectivity)
CN1C(=O)C(c2ccc(OC(F)(F)F)c(F)c2)(c2ccc(F)c(-c3cncc(F)c3)c2)N=C1N (centres unmarked) [Example 41, 2-Amino-5-[4-fluoro-3-(5-fluoropyridin-3-yl)phenyl]-5-[3-fluoro-4-(trifluoromethoxy)phenyl]-3-methyl-3,5-dihydro-imidazol-4-one] | – | 0.11 to 1 | II (II = 10-100-fold selectivity)
CN1C(=O)C(c2ccc(OC(F)(F)F)c(F)c2)(c2ccc(F)c(-c3cccnc3F)c2)N=C1N (centres unmarked) [Example 43] | – | 0.01 to 0.1 | II (II = 10-100-fold selectivity)
CN1C(=O)C(c2ccc(OC(F)(F)F)cc2)(c2cccc(-c3cncnc3)c2F)N=C1N (centres unmarked) [Example 48] | – | > 1 | II (II = 10-100-fold selectivity)
COc1ncccc1-c1cccc(C2(c3ccc(OC(F)(F)F)cc3)N=C(N)N(C)C2=O)c1 (centres unmarked) [Example 52] | – | 0.11 to 1 | II (II = 10-100-fold selectivity)
COc1ccc(C2(c3ccc(F)c(-c4ccc(F)nc4)c3)N=C(N)N(C)C2=O)cc1C(F)(F)F (centres unmarked) [Example 57] | – | 0.01 to 0.1 | II (II = 10-100-fold selectivity)
COc1ccc(C2(c3ccc(F)c(-c4cccnc4F)c3)N=C(N)N(C)C2=O)cc1C(F)(F)F (centres unmarked) [Example 58] | – | 0.01 to 0.1 | II (II = 10-100-fold selectivity)
COc1ccc(C2(c3cccc(-c4cccnc4F)c3)N=C(N)N(C)C2=O)cc1C (centres unmarked) [Example 59] | – | 0.01 to 0.1 | II (II = 10-100-fold selectivity)
COc1ccc(C2(c3ccc(F)c(-c4cncc(F)c4)c3)N=C(N)N(C)C2=O)cc1 (centres unmarked) [Example 60] | – | 0.01 to 0.1 | II (II = 10-100-fold selectivity)
COc1ccc(C2(c3ccc(F)c(-c4cncc(F)c4)c3)N=C(N)N(C)C2=O)cc1C (centres unmarked) [Example 61] | – | 0.01 to 0.1 | II (II = 10-100-fold selectivity)
COc1ccc(C2(c3ccc(F)c(-c4cccnc4F)c3)N=C(N)N(C)C2=O)cc1 (centres unmarked) [Example 62] | – | 0.01 to 0.1 | II (II = 10-100-fold selectivity)
COc1ccc(C2(c3ccc(F)c(-c4cncnc4)c3)N=C(N)N(C)C2=O)cc1 (centres unmarked) [Example 63] | – | 0.01 to 0.1 | I (I = >100-fold selectivity)
CN1C(=O)C(c2ccc(OC(F)(F)F)cc2)(c2cccc(-c3ccc(F)nc3)c2)N=C1N (centres unmarked) [Example 65] | – | 0.11 to 1 | II (II = 10-100-fold selectivity)

Structure (SMILES) | IC50 [1] [µM] | IC50 [1, 3] [µM] | BACE1/BACE2 selectivity [2]
CCOc1ccc(C2(c3cccc(-c4cncc(OC)c4)c3)N=C(N)N(C)C2=O)cc1OCC (centres unmarked) [Example 67] | – | 0.01 to 0.1 | III (III = <10-fold selectivity)
CCOc1ccc(C2(c3cccc(-c4cccnc4OC)c3)N=C(N)N(C)C2=O)cc1OCC (centres unmarked) [Example 68] | – | 0.11 to 1 | III (III = <10-fold selectivity)
CCOc1ccc(C2(c3cccc(-c4ccc(F)nc4)c3)N=C(N)N(C)C2=O)cc1OCC (centres unmarked) [Example 69] | – | 0.01 to 0.1 | III (III = <10-fold selectivity)
CCOc1ccc(C2(c3cccc(-c4cccnc4F)c3)N=C(N)N(C)C2=O)cc1OCC (centres unmarked) [Example 70] | – | 0.01 to 0.1 | II (II = 10-100-fold selectivity)
COc1cncc(-c2cc(C3(c4ccc(OC(F)(F)F)cc4)N=C(N)N(C)C3=O)ccc2F)c1 (centres unmarked) [Example 71] | – | 0.01 to 0.1 | III (III = <10-fold selectivity)
COc1ncccc1-c1cc(C2(c3ccc(OC(F)(F)F)cc3)N=C(N)N(C)C2=O)ccc1F (centres unmarked) [Example 72] | – | 0.11 to 1 | II (II = 10-100-fold selectivity)
CN1C(=O)C(c2ccc(OC(F)(F)F)cc2)(c2ccc(F)c(-c3ccc(F)nc3)c2)N=C1N (centres unmarked) [Example 73] | – | 0.11 to 1 | II (II = 10-100-fold selectivity)
CN1C(=O)C(c2ccc(OC(F)(F)F)cc2)(c2ccc(F)c(-c3cccnc3F)c2)N=C1N (centres unmarked) [Example 74] | – | 0.01 to 0.1 | II (II = 10-100-fold selectivity)
COc1ccc(C2(c3cccc(-c4cccnc4OC)c3)N=C(N)N(C)C2=O)cc1C (centres unmarked) [Example 75] | – | 0.11 to 1 | II (II = 10-100-fold selectivity)
CN1C(=O)C(c2ccc(OC(F)(F)F)c(F)c2)(c2ccc(F)c(-c3cnccc3F)c2)N=C1N (centres unmarked) [Example 78] | – | 0.01 to 0.1 | II (II = 10-100-fold selectivity)
COc1ccc(C2(c3ccc(F)c(-c4cncc(Cl)c4)c3)N=C(N)N(C)C2=O)cc1 (centres unmarked) [Example 80] | – | 0.01 to 0.1 | III (III = <10-fold selectivity)
CCOc1ccc(C2(c3cccc(-c4cnccc4F)c3)N=C(N)N(C)C2=O)cc1OCC (centres unmarked) [Example 81] | – | 0.01 to 0.1 | II (II = 10-100-fold selectivity)
CN1C(=O)C(c2ccc(OC(F)(F)F)cc2)(c2cccc(-c3cnccc3F)c2)N=C1N (centres unmarked) [Example 82] | – | 0.01 to 0.1 | II (II = 10-100-fold selectivity)
COc1ccc(C2(c3ccc(F)c(-c4cnccc4F)c3)N=C(N)N(C)C2=O)cc1 (centres unmarked) [Example 83] | – | 0.01 to 0.1 | II (II = 10-100-fold selectivity)
CN1C(=O)C(c2ccc(OC(F)(F)F)cc2)(c2cc(-c3cccnc3)ccc2F)N=C1N (centres unmarked) [Example 84] | – | 0.11 to 1 | I (I = >100-fold selectivity)
CN1C(=O)C(c2ccc(OC(F)F)cc2)(c2ccc(F)c(-c3ccc(F)nc3)c2)N=C1N (centres unmarked) [Example 88] | – | 0.01 to 0.1 | II (II = 10-100-fold selectivity)
CN1C(=O)C(c2ccc(OC(F)F)cc2)(c2cccc(-c3ccc(F)nc3)c2)N=C1N (centres unmarked) [Example 90] | – | 0.01 to 0.1 | II (II = 10-100-fold selectivity)
CN1C(=O)C(c2ccc(OC(F)F)cc2)(c2cccc(-c3cc(F)cnc3F)c2)N=C1N (centres unmarked) [Example 91] | – | 0.01 to 0.1 | II (II = 10-100-fold selectivity)
CN1C(=O)C(c2ccc(OC(F)F)cc2)(c2ccc(F)c(-c3cc(F)cnc3F)c2)N=C1N (centres unmarked) [Example 92] | – | 0.01 to 0.1 | II (II = 10-100-fold selectivity)
CN1C(=O)C(c2ccc(OC(F)(F)F)cc2)(c2ccc(F)c(-c3cnn(C)c3)c2)N=C1N (centres unmarked) [Example 100, 2-Amino-5-[4-fluoro-3-(1-methyl-1H-pyrazol-4-yl)phenyl]3-methyl-5-[4-(trifluoromethoxy)phenyl]-3,5-dihydro-4H-imidazol-4-one] | – | 0.11 to 1 | III (III = <10-fold selectivity)
COc1ccc([C@@]2(c3cccc(-c4cccnc4F)c3)N=C(N)N(C)C2=O)cc1C [Example 102A, (5R)-2-Amino-5-[3-(2-fluoropyridin-3-yl)phenyl]-5-(4-methoxy-3-methylphenyl]-3-methyl-3,5-dihydro-4H-imidazol-4-one] | 0.11 to 1 | – | –
COc1ccc([C@]2(c3cccc(-c4cccnc4F)c3)N=C(N)N(C)C2=O)cc1C [Example 102B, (5S)-2-Amino-5-[3-(2-fluoropyridin-3-yl)phenyl]-5-(4-methoxy-3-methylphenyl]-3-methyl-3,5-dihydro-4H-imidazol-4-one] | 0.01 to 0.1 | – | –
